Laboratory results reported in US20040192553A1, “Inosine L-Arginine salt and uses thereof” (priority 2001, published 2004).

Key:
[1] = Test of velocity of dissolution; type: physicochemical; conditions: 1.2 mmol added to 10 mL of water with stirring at room temperature
Method: Test of Velocity of Dissolution
Each of the following was added to separate containers containing 10 mL of water with stirring at room temperature: (a) a mixture (0.53 g) of 1.2 mmol of inosine and 1.2 mmol of L-arginine, (b) 1.2 mmol (0.53 g) of the inosine. L-arginine salt obtained in Example 1, and (3) 1.2 mmol (0.32 g) of inosine. The time period for complete dissolution was measured for each. The equimolar mixture of inosine and L-arginine required 50 seconds for complete dissolution. On the other hand, inosine. […] L-arginine salt were confirmed.

[2] = system: Lawn seedlings (Western lawn: bent grass); assay: Plant growth promoting effect, hydroponic culture of lawn seedlings; type: in vivo; conditions: hydroponics in HYPONEX diluted 2,000-fold, inosine concentration 20 ppm, after a month of culturing
Method: Plant Growth Promoting Effect
Lawn seedlings (Western lawn: bent grass) were raised and divided into two groups each containing 30 plants. Hydroponics were performed as follows. Both the control group and the inosine. L-arginine salt group were cultured using HYPONEX, diluted by a facter of 2,000. The HYPONEX diluted by a facter of 2000 alone was used as culture fluid for the control group. Inosine- L-arginine salt was added to the culture fluid to an inosine concentration of 20 ppm.
After a month of culturing, the average plant length, the average root length, the number of leaves for 30 plants, the number of branching of a stem for 30 plants, the weight for 30 plants, and the dried weight for 30 plants were measured for each group. From the Table, the effectiveness of inosine. L-arginine salt was confirmed.

[3] = at normal temperatures; cited from earlier work

N=C(N)NCCC[C@H](N)C(=O)O.OC[C@H]1O[C@@H](n2cnc3c(O)ncnc32)[C@H](O)[C@@H]1O [inosine · L-arginine salt, inosine. L-arginine salt]
time period for complete dissolution [1]: dissolved immediately | Dried weight per 30 plants [2]: 0.0434 g | Number of branching per 30 plants [2]: 37 | Number of leaves per 30 plants [2]: 102 | Weight per 30 plants [2]: 0.13 g | Average plant length ([2]; 30 plants): 6.0 cm | Average root length ([2]; 30 plants): 5.0 cm

OC[C@H]1O[C@@H](n2cnc3c(O)ncnc32)[C@H](O)[C@@H]1O [inosine]
time period for complete dissolution [1]: did not completely dissolve | solubility in water [3]: about 1.6%
